One data set has as its system Hcrt-R1 WT and KO mice. Kind of data set: Nicotine self-administration assay (mice), with food self-administration. The class given is in vivo. The settings on record: for food self-administration (SA): KO and WT mice, systemic administration 30 min prior to the SA session; for nicotine SA: doses 0, 5 and 10 mg/kg. The source says:
To generate Hcrt-R1^+/+ and […] mice, breeding pairs of male and female Hcrt-R1^+/− mice that were backcrossed >10 generations on a C57BL/6 background were obtained from Jackson Laboratory (Bar Harbor, Me.). For all experiments, mice weighing 25-35 g were housed in groups of 2-3 per cage, in a temperature-controlled vivarium under a reversed 12-h light/dark cycle (lights off at 8 am). Food and water were provided ad libitum until behavioral training commenced. During training, mice were food-restricted to maintain ˜85-90% of their free-feeding body weight. Behavioral testing occurred during the dark portion of the light/dark cycle between the hours of 9 am-1 pm, during the early portion of the dark phase of the cycle. All procedures were conducted in strict adherence with the National Institutes of Health Guide for the Care and Use of Laboratory Animals and were approved by the Institutional Animal Care and Use Committee of The Scripps Research Institute.
Mice were anesthetized by inhalation of 1-3% isoflurane in oxygen and silastic catheters were inserted into the jugular veins. Briefly, the catheters consisted of a 6 cm length of silastic tubing fitted to a guide cannula (Plastics One, Wallingford, Conn.), bent at a curved right angle and encased in dental acrylic. The catheter tubing was passed subcutaneously from each animal's back to the right jugular vein, and 1 cm length of the catheter tip was inserted into the vein. After surgery, catheters were flushed daily with 0.1 ml of a heparinized (30 USP units/ml) sterile saline solution. Following 7 d of surgical recovery, mice were mildly food restricted to 85-90% of their free-feeding body weight and trained to press a lever in an operant chamber (Med Associates, St. Albans, Vt.) for food pellets (20 mg; TestDiet, Richmond, Ind.) under a fixed-ratio 5, time out 20-s (FR5TO20 s) schedule of reinforcement […]. Once stable responding was achieved (>25 pellets per session), mice were permitted to acquire IV nicotine self-administration by autoshaping during 1-h daily sessions, 7 days per week. Nicotine was delivered through the tubing into the IV catheter by a Razel syringe pump (Med Associates). […] After 1 week, the nicotine dose was increased to 0.1 mg/kg/inf for the remainder of the experiment, including subsequent training and test sessions. […] During the TO period, responding on the lever was recorded but without scheduled consequence. […]
For Hcrt-R1 re-expression studies, the human Hcrt-R1 gene was cloned into the pCDF1 lentivirus expression vector containing copGFP (GFP cloned from copepod Pontellina plumata) from Systems Biosciences. […] Viral supernatant titres were determined using the Lentivector Rapid Titer Kit from System Biosciences, according to the manufacturer's instructions. […]

A further data set concerns the target T1, OX1 (Homo sapiens, UniProt O43613).
T1 construct: expressed in transfected cells; host or cells: CHO (CHO-OX1, kept under selection antibiotic)
T1 sequence (O43613 1-425): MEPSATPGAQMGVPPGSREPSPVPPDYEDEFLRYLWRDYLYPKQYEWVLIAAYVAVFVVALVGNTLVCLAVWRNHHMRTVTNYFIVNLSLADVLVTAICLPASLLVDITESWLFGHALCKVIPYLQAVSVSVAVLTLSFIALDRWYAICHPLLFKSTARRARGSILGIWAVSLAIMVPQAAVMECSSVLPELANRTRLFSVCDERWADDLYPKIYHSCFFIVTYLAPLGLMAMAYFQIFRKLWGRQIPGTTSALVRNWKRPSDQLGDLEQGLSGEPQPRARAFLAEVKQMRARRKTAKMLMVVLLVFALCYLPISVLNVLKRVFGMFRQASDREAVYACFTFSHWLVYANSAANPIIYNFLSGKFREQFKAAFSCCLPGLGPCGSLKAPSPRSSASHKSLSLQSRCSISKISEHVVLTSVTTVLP
Kind of data set: Orexin receptor cell-based functional assay, [Ca2+]i by FLIPR, CHO-OX1 cells. Summed up:
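Antagonist mode FLIPR calcium read in CHO-OX1 and CHO-OX2 lines. Test compounds, dosed 0.1 nM-10 μM, preincubated 30 min after 37° C dye loading with 2.5 mM probenecid (calcium4 for 30 min or calcium6 for 2 h).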

Data set [1] has as its target T2, cytochrome P450 3A4 isoform (Homo sapiens, UniProt P08684).
T2 construct: pre-incubated with human liver microsomes and NADPH; from tissue; host or cells: human liver microsomes
Kind of data set: Cytochrome P450 inhibition assay (midazolam hydroxylation). The class given is in vitro ADME. To be noted: 10 μM test compound, midazolam at approximately its Km, human liver microsomes. Summed up: (§1)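 Percent inhibition of midazolam 1′-hydroxylation by 10 μM compound was measured, midazolam dosed at about Km. Time-dependent inhibition was probed by a 30 min preincubation of compound with human liver microsomes and NADPH ahead of substrate, compared against samples without preincubation.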
Background: Liver microsomes are vesicles of endoplasmic reticulum, rich in cytochrome P450 enzymes.

For a further data set, the system named is rats. The data set can be described thus: Nicotine self-administration assay (rats), with food responding. The class given is in vivo. To be noted: several doses. The source says: For all experiments, rats weighing 250-300 g were housed in groups of […] per cage, in a temperature-controlled vivarium under a reversed 12-h light/dark cycle (lights off at 8 am). Food and water were provided ad libitum until behavioral training commences. During training, rats were food-restricted to maintain ˜85-90% of their free-feeding body weight. Behavioral testing occurred during the dark portion of the light/dark cycle between the hours of 9 am-1 pm, during the early portion of the dark phase of the cycle. All procedures were conducted in strict adherence with the National Institutes of Health Guide for the Care and Use of Laboratory Animals and are approved by the Institutional Animal Care and Use Committee of The Scripps Research Institute.
Rats were anesthetized by inhalation of 1-3% isoflurane in oxygen and silastic catheters were inserted into the jugular veins. Briefly, the catheters consist of a 14 cm length of silastic tubing fitted to a guide cannula (Plastics One, Wallingford, Conn.), bent at a curved right angle and encased in dental acrylic. The catheter tubing was passed subcutaneously from each animal's back to the right jugular vein, and 1 cm length of the catheter tip was inserted into the vein. […] During the TO period, responding on the lever was recorded but without scheduled consequence. […]

A further data set has as its target T3, CYP3A4 (Homo sapiens, UniProt P08684).
T3 construct: pre-incubated with human liver microsomes and NADPH; from tissue; host or cells: human liver microsomes
Kind of data set: Cytochrome P450 inhibition assay (midazolam hydroxylation). The class given is in vitro ADME. To be noted: human, human liver microsomes, probe midazolam (hydroxylation to 1′-hydroxymidazolam), 10 μM test compound, midazolam at approximately its Km. Summed up: as §1

Where [2] appears, read: CHO-OX1 cells, [Ca2+]i by FLIPR, antagonist dose-range 0.1 nM-10 μM, EC90 of OXA, read-out: OX1.

Like-named read-outs stand apart in the source and are kept apart here.

T2 sequence (P08684 whole entry, canonical isoform): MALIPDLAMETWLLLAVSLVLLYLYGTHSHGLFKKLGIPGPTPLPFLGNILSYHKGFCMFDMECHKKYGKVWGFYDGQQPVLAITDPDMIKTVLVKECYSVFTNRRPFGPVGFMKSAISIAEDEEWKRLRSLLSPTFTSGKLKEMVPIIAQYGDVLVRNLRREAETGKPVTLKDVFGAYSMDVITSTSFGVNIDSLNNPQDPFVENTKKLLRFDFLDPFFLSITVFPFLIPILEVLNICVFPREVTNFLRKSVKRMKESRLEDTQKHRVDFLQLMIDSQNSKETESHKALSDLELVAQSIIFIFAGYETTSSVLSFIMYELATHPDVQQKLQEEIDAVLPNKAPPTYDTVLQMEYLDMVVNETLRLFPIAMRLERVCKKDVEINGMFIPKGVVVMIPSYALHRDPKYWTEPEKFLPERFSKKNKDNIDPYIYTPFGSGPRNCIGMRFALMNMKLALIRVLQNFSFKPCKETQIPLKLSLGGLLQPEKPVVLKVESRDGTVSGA
T3 sequence (P08684 whole entry): as the sequence (P08684 whole entry, canonical isoform) above

As for `Cc1nc(C(=O)N2CCC[C@@H](C)[C@H]2CNc2ccc(C(F)(F)F)cn2)c(-c2ccc(F)cc2)s1` (racemic) [Example 11, rac-cis-(5-(4-Fluorophenyl)-2-methylthiazol-4-yl)(3-methyl-2-(((5-(trifluoromethyl)pyridin-2-yl)amino)methyl)piperidin-1-yl)methanone], the “food self-administration (SA)” value in the data set on Hcrt-R1 WT and KO mice is “no effect”. Besides, the IC50 at OX1 (Table 2, CHO-OX1 cells, EC90 of OXA, read-out: IC50 Bioactivity OX1) was determined as 8 nM; at OX1 (Table 6, racemate vs enantiomers, read-out: OX1 IC50), 8 nM.

Turning to `C[C@@H]1CCCN(C(=O)c2cccc(F)c2-c2ncccn2)[C@@H]1CNc1ccc(Cl)cn1` [Example A232, ((2S,3R)-2-(((5-chloropyridin-2-yl)amino)methyl)-3-methylpiperidin-1-yl)(3-fluoro-2-(pyrimidin-2-yl)phenyl)methanone], the IC50 at OX1 (setting [2]) came out at 8 nM. Also, the “% CYP3A4 Inhibition” value in data set [1] worked out at 65%.

`CC1(C)OC[C@H](NC(=O)Nc2ccc(Br)cc2Br)[C@H](c2ccccc2)O1` [JNJ10397049]: in the data set on Hcrt-R1 WT and KO mice, the “food self-administration (SA)” value was “no effect”. Further, the “nicotine SA” value is given as “marginal decrease” with Hcrt-R1 WT and KO mice (KO mice); “no effect” in the data set on Hcrt-R1 WT and KO mice (WT mice).

As for `Cc1ccc(-c2cnn(C)c2)c(C(=O)N2CCC[C@@H](C)[C@H]2CNc2nc3cc(Cl)ccc3o2)c1` [Example A40, ((2S,3R)-2-(((5-Chlorobenzo[d]oxazol-2-yl)amino)methyl)-3-methylpiperidin-1-yl)(5-methyl-2-(1-methyl-1H-pyrazol-4-yl)phenyl)methanone], the IC50 at OX1 (setting [2]) worked out at 20 nM. In addition, in data set [1] (10 µM), the “% CYP3A4 Inhibition” value amounted to 96%.

As to `C[C@@H]1CCCN(C(=O)c2cc(F)c(F)cc2-c2ncccn2)[C@@H]1CNc1ccc(C(F)(F)F)cn1` [Example A242, (4,5-Difluoro-2-(pyrimidin-2-yl)phenyl)((2S,3R)-3-methyl-2-(((5-(trifluoromethyl)pyridin-2-yl)amino)methyl)piperidin-1-yl)methanone], the IC50 on OX1 (setting [2]) was 24 nM. Besides, the “% CYP3A4 Inhibition” value in data set [1] is recorded as 87%.

For the compound `Cc1ccc(-n2nccn2)c(C(=O)N2CCC[C@@H](C)[C@H]2CNc2ccc(C#N)cn2)c1` [Example A46, 6-((((2S,3R)-3-Methyl-1-(5-methyl-2-(2H-1,2,3-triazol-2-yl)benzoyl)piperidin-2-yl)methyl)amino)nicotinonitrile], the IC50 at OX1 (setting [2]) is 5 nM. For the same compound, the “% CYP3A4 Inhibition” value in data set [1] (10 µM) is recorded as 53%.

One may read the inhibition as the share of the control response that was lost under treatment. In the case of `Cc1ccc(-c2cnn(C)c2)c(C(=O)N2CCC[C@@H](C)[C@H]2CNc2ccc(C(F)(F)F)cn2)c1` [Example A1, ((2S,3R)-3-Methyl-2-(((5-(trifluoromethyl)pyridin-2-yl)amino)methyl)piperidin-1-yl)(5-methyl-2-(1-methyl-1H-pyrazol-4-yl)phenyl)methanone], in the data set on rats, the food intake entry is reported as “does not have a significant effect” and the nicotine self-administration result is “dose-dependent reduction”. For the same compound, the inhibition at 10 µM against CYP3A4 was 98%.

These data come from patent US9440982B2 (Eolas Therapeutics, Inc., priority 2012, dated 2016).
